# Key:
# survivin = test: Western blot of apoptosis regulatory proteins in MCF-7 cells; type: cell-based, human; settings: MCF-7, 0.05, 0.1 and 0.5 μM, dose- and time-dependent
# Text: Survivin is a member of the inhibitor of apoptosis (IAP) protein family. It is an essential anti-apoptotic protein marker that is overexpressed in most tumour cells and is associated with a poor clinical outcome. Survivin inhibits caspase activation, which is used as an indicator of apoptosis cascades. Survivin selective inhibitor molecules have been identified as cancer therapeutics, including survivin–partner protein interaction inhibitors, survivin homodimerisation inhibitors, survivin gene transcription inhibitors and survivin mRNA inhibitors. We examined the effect of a range of concentrations of compound 33 (0.05, 0.1 and 0.5 μM) on the level of survivin expressed.
# Western blot analysis was performed according to the protocols we previously described. MCF-7 cells were seeded at a density of 1 × 10^5 cells/flask in T25 flasks. After 48 h, whole cell lysates were prepared from untreated cells or cells treated with vehicle control (EtOH, 0.1% v/v) or cells treated with compound 33 (0.05 μM, 0.1 μM and 0.5 μM). […] Equal amounts of protein (as determined by a BCA assay) were resolved by SDS-PAGE (12%) followed by transfer to PVDF membranes. […] Proteins were detected using enhanced chemiluminescent Western blot detection (Clarity Western ECL substrate) (Bio-Rad) on the ChemiDoc MP System (Bio-Rad). […]
# [1] = test system: purified bovine brain tubulin; test: Tubulin polymerisation assay (turbidimetric, 340 nm); type: biochemical
# Method: Tubulin polymerisation was investigated using a turbidimetric assay which determines the light scattering by microtubules (absorbance at 340 nm) that is proportional to the microtubule polymer concentration.
# Tubulin polymerisation was monitored with purified bovine tubulin using the BK006 kit supplied by Cytoskeleton Inc. (Denver, CO, USA), carried out following the manufacturer’s instructions with the standard assay conditions. Purified (>99%) bovine brain tubulin (3 mg/mL) in a buffer containing PIPES (80 mM, pH 6.9), EGTA (0.5 mM), MgCl2 (2 mM), GTP (1 mM) and glycerol (10%) was incubated at 37 °C in the presence of either vehicle (2% (v/v) ddH2O) or paclitaxel (10 µM), CA-4 (10 μM) or 33 (10 and 30 µM). The effect on tubulin assembly was monitored turbidimetrically at 340 nm in a Spectramax 340 PC spectrophotometer (Molecular Devices, Sunnyvale, CA, USA), with the light scattered depending on the concentration of polymerised microtubules formed. The absorbance was measured at 30 s intervals for 60 min.
# Figure 7 Effect of β-lactam compound 33 (10 and 30 µM) and paclitaxel (10 µM) on in vitro tubulin polymerisation. Purified bovine tubulin and GTP were mixed in a 96-well plate. Compounds were added and the reaction was started by warming the solution from 4 to 37 °C. Ethanol (1% v/v) was used as a vehicle control. The effect on tubulin assembly was monitored in a Spectramax 340PC spectrophotometer at 340 nm at 30 s intervals for 30 min at 37 °C. […] Each experiment was performed in duplicate.
smiles,measurement,setting,value
"COc1ccc(C2C(F)C(=O)N2c2cc(OC)c(OC)c(OC)c2)cc1F (stereo not shown) [Compound 33, 3-Fluoro-4-(3-fluoro-4-methoxyphenyl)-1-(3,4,5-trimethoxyphenyl)azetidin-2-one]",survivin expression,survivin,downregulation
same,reduction in the Vmax of tubulin polymerisation compared to the vehicle,[1]; 10 μM,3.5 fold
same,reduction in the Vmax of tubulin polymerisation compared to the vehicle,[1]; 30 µM,4 fold
same,effect on tubulin polymerisation,"[1]; paclitaxel 10 µM, 33 10 and 30 µM",inhibited tubulin polymerisation
